Laboratory results published in patent US20090203661A1, “Betulinic acid, derivatives and analogs thereof and uses therefor” (priority 2006, published 2009).
Residues, ends and D or L forms follow the SMILES beside them. *: point of attachment. Cbz = O=C(OCc1ccccc1)*

Key:
HT-29 cells [1] = details: HT-29, earlier reports; cited from earlier work
SW480 cells [2] = details: SW480, earlier reports; cited from earlier work
LNCaP cells = assay: Western blot analysis of protein expression in LNCaP cells; assay type: cell-based, Human; details: 10 μM, compound alone
Method: Human carcinoma cell lines LNCaP (prostate) and SK-MEL2 (melanoma) were obtained from American Type Culture Collection (Manassas, Va.). Cell lines were maintained in RPMI 1640 (Sigma) supplemented with 0.22% sodium bicarbonate, 0.011% sodium pyruvate, 0.45% glucose, 0.24% HEPES, 10% FBS, and 10 mL/L of 100× Antibiotic Antimycotic solution (Sigma). Cells were maintained at 37° C. in the presence of 5% CO2.
An equal amount of cell lysate (60 μg/well) was separated by 7.5% to 12% SDS-PAGE, which was followed by immunoblotting onto polyvinylidene difluoride (Bio-Rad, Hercules, Calif.). After blocking in TBST-Blotto (10 mmol/L Tris-HCl, 150 mmol/L NaCl (pH 8.0), 0.05% Triton X-100, 5% nonfat dry milk) for 30 min, the membranes were incubated with primary antibodies overnight at 4° C. and then with horseradish peroxidase-conjugated secondary antibody for 2 hr at room temperature. Proteins were visualized using the chemiluminescence substrate (Perkin-Elmer Life Sciences) for 1 min and exposed to Kodak X-OMAT AR autoradiography film (Eastman Kodak, Rochester, N.Y.).

SW480 cells [3] = details: SW480, reference [9]; cited from earlier work
PPARγ = biological target: T1, PPARγ (Homo sapiens, UniProt P37231); assay: Mammalian two-hybrid assay (VP-PPARγ / GAL4-coactivator) in SW480 cells; assay type: cell-based
T1 construct: containing the DEF region of the PPARγ (amino acids 183-505) fused to the pVP16 expression vector; expressed in transfected cells; host or cells: SW480 colon cancer cells; plasmid provided by Dr. Shigeaki Kato (University of Tokyo)
T1 sequence (P37231 183-505): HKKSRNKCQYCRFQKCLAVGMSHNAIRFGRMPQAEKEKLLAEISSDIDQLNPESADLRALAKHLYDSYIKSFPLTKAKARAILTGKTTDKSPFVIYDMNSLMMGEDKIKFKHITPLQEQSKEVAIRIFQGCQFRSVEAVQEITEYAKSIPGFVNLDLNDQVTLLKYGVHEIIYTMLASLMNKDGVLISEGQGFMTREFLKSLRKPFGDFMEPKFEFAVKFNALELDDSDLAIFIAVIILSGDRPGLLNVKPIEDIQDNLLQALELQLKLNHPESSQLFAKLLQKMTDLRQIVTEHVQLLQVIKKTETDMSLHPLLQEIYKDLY
Method: The GAL4 reporter construct containing 5×GAL4 response elements (p GAL4) was provided by Dr. Marty Mayo (University of […], Chapel Hill, N.C.). The GAL4-coactivator fusion plasmids pM-SRC1, pMSRC2, pMSRC3, pM-DRIP205, pM-CARM-1 and PPARγ-VP16 fusion plasmid (Vp-PPARγ) containing the DEF region of the PPARγ (amino acids 183-505) fused to the pVP16 expression vector were provided by Dr. Shigeaki Kato (University of Tokyo, Tokyo, Japan). SW480 colon cancer cells were plated in 12-well tissue culture plates at 1×10^5 cells per well in DMEM/Ham's F-12 medium supplemented with 2.5% charcoal stripped FBS.
After allowing them to adhere overnight, transient transfections were carried out with GAL4-Luc (0.4 μg), β-GAL (0.04 μg), VP-PPARγ (0.04 μg), pM-SRC1 (0.04 μg), pM-PGC-1 (0.04 μg), pM-SMRT (0.04 μg), pM-TRAP220 (0.04 μg), pM-DRIP205 (0.04 μg), and pMCARM1 (0.04 μg) using LipofectAMINE2000 (Invitrogen) following the manufacturer's guidelines. After 6 hr of transfection, cells were treated in triplicate either with vehicle (DMSO) or the indicated compound suspended in complete medium for 20-24 hr. One hundred μL per well of 1× Reporter Lysis Buffer (Promega) was used to lyse the cells and 30 μl of this lysate was used to perform the luciferase and β-GAL assays using Lumicount (Perkin-Elmer Life and Analytical Sciences, Boston, Mass.). The luciferase activities obtained were normalized to the β-gal activity.

HT-29 cells [4] = assay: KLF4 mRNA (RT-PCR) in HT-29 cells; assay type: cell-based, human
Method: SW480 and HT29 colon cancer cells were treated either with vehicle (DMSO) or indicated compounds and after 24 hr total RNA was extracted using RNeasy Mini kit (Qiagen, Inc., Valencia, Calif.). RNA concentration was measured by UV 260:280 nm absorption ratio and 2 μg RNA was used to synthesize cDNA using Reverse Transcription System (Promega). PCR conditions were as follows: initial denaturation at 94° C. (1 min) followed by 28 cycles of denaturation for 30 s at 94° C., annealing for 60 s at 55° C. and extension at 72° C. for 60 s and a final extension step at 72° C. for 5 min. The mRNA levels were normalized using GAPDH as an internal housekeeping gene. Primers obtained from IDT and used for amplification are as follows: KLF4 (sense 5′-CTATGGCAGGGAGTCCGCTCC-3′ (SEQ ID NO: 1); antisense 5′-ATGACCGACGGGCTGCCGTAC-3′ (SEQ ID NO: 2)) and GAPDH (sense 5′-ACGGATTTGGTCGTATTGGGCG-3′ (SEQ ID NO: 3); antisense 5′-CTCCTGGAAGATGGTGATGG-3′ (SEQ ID NO: 4). PCR products were electrophoresed on 1% agarose gels containing ethidium bromide and visualized under UV transillumination.

Compound	caveolin-1 induction (HT-29 cells [1])	caveolin-1 induction (SW480 cells [2])	other results
CC1(C)CC[C@]2(C(=O)O)CC[C@]3(C)[C@H](C(=O)C=C4[C@@]5(C)C=C(C#N)C(=O)C(C)(C)[C@@H]5CC[C@]43C)[C@@H]2C1 [CDDO]	inducing caveolin-1	inducing caveolin-1	
CC(C)C[C@@H](C=O)NC(=O)[C@H](CC(C)C)NC(=O)[C@H](CC(C)C)NC(=O)OCc1ccccc1 [MG132] (Cbz-Leu-Leu-Leu-aldehyde)			PARP cleavage (LNCaP cells): induced caspase-dependent cleavage of PARP
COC(=O)[C@@]1(C)CC[C@]2(C)CC[C@]3(C)C(=CC(=O)[C@@H]4[C@@]5(C)C=C(C#N)C(=O)C(C)(C)[C@@H]5CC[C@]43C)[C@H]2C1 [α-CDODA-Me]	inducing caveolin-1	inducing caveolin-1	KLF4 mRNA (SW480 cells [3]): enhanced KLF4 mRNA
COC(=O)[C@@]1(C)CCC2(C)CC[C@]3(C)C(=CC(=O)[C@@H]4C5(C)C=C(C#N)C(=O)C(C)(C)[C@@H]5CCC43C)C2C1 (stereo partly drawn) [β-CDODA-Me, Methyl 2-cyano-3,12-dioxo-18β-olean-1,12-diene-30-oic Acid, reference compound]			luciferase activity, VP-PPARγ with GAL4 PGC-1 and GAL4 SRC-1 (PPARγ): significantly induced luciferase activity; effect of T007 on induction of KLF4 mRNA (HT-29 cells [4]; HT-29, cotreatment with T007): decreased significantly; part of induced KLF4 mRNA response inhibited by T007 (HT-29 cells [4]; cotreatment with T007): 60-80%
CC1(C)C(=O)C(C#N)=C[C@]2(C)[C@H]3C(=O)C=C4[C@@H]5C[C@@](C)(C(=O)O)CC[C@]5(C)CC[C@@]4(C)[C@]3(C)CC[C@@H]12 [β-CDODA]	induced caveolin-1		
